# Experimental data reported in patent publication US8603227B2, “Composition for prevention of influenza viral infection comprising tannic acid, air filter comprising the same and air cleaning device comprising the filter” (Woongjin Coway Co., Ltd., priority 2009, dated 2013).
# Key:
# Format in all cases: cell-based, influenza A virus subtype H1N1
# [1] = tested on: new influenza A (H1N1) (A/California/O4/09); experiment: Plaque assay of tannic acid against new influenza A (H1N1) A/California/O4/09 on MDCK cells
# Protocol: (§1) Tannic acid was assayed for inhibitory activity against influenza virus as follows.
# (§2) As influenza virus strains to be tested, influenza A subtype H1N1 viruses A/PR/8 (H1N1) and A/WSN (H1N1) as well as the WHO standard strain influenza A (H1N1) (A/California/O4/09), which was responsible for the declaration of the 2009 pandemic, were used.
# (§3) Tannic acid was used as a sample in the following procedure.
# (§4) The MDCK (Mardine Darbine Canine Kidney) cell line was inoculated at a density of 1.5×10^6 cells/mL into 6-well plates which were then incubated at 37° C. for 24 his in a 5% CO2 atmosphere. Separately, tannic acid was diluted to 100 mg/ml (1×) in an injection solution. The dilution was subjected to serial 10-fold dilutions. The specimens thus obtained were added in an amount of 90 μL per well to 96-well plates. 10 uL of an influenza virus sample was added to each well, incubated for 10 min, and 10-fold diluted with PBS. The MDCK cell line which had grown to confluence on the plates was infected with 1 mL of the dilution and incubated for 1 hr. For an “infection+non-administration” control, the MDCK cell line was infected with influenza virus which had not been treated with tannic acid.
# (§5) Thereafter, the medium was removed, and a mixture of 1:1 2× agarose:2×MEM containing 10 μg/ml trypsin was added in an amount of 2 mL per well. […]
# [2] = tested on: influenza A/PR/8 (H1N1); experiment: Plaque assay of tannic acid against influenza A/PR/8 (H1N1) on MDCK cells
# Protocol: as §1, §2, §3, §4, §5
# [3] = tested on: influenza A/WSN/33 (H1N1); experiment: Plaque assay of tannic acid against influenza A/WSN/33 (H1N1) on MDCK cells
# Protocol: as §1, §2, §3, §4, §5
# [4] = (1-treated/control)x100, MDCK plaque count
# [5] = virus incubated 10 min with tannic acid, MDCK plaque count
smiles,measurement,setting,value
"O=C(OC[C@H]1O[C@@H](OC(=O)c2cc(O)c(O)c(OC(=O)c3cc(O)c(O)c(O)c3)c2)[C@H](OC(=O)c2cc(O)c(O)c(OC(=O)c3cc(O)c(O)c(O)c3)c2)[C@@H](OC(=O)c2cc(O)c(O)c(OC(=O)c3cc(O)c(O)c(O)c3)c2)[C@@H]1OC(=O)c1cc(O)c(O)c(OC(=O)c2cc(O)c(O)c(O)c2)c1)c1cc(O)c(O)c(OC(=O)c2cc(O)c(O)c(O)c2)c1 [Tannic Acid, Tannic acid]",Inhibitory Activity,[1]; [4],99.99%
same,Virus Titer,[1]; [5],Not-detected
same,Inhibitory Activity,[2]; [4],99.99%
same,Virus Titer,[2]; [5],Not-detected
same,Inhibitory Activity,[3]; [4],99.99%
same,Virus Titer,[3]; [5],Not-detected
